Data published in publication PMC7505474, “Toll-like receptor 4-mediated inflammation triggered by extracellular IFI16 is enhanced by lipopolysaccharide binding” (PLoS Pathogens, 2020).
Entries after “also recorded” stand apart in the source; their conditions may differ. Where two headings read alike, the source gives them in different places.

Experiments:
PYRIN = target: T1, PYRIN (Homo sapiens, UniProt Q16666); test: Saturation binding ELISA, PYRIN domain on immobilized LPS variants / lipid A
T1 construct: the N-terminal portion containing the pyrin domain (PYRIN); made in house; host or cells: bacteria (pET30a vector)
T1 sequence (Q16666 1-88 limits assumed): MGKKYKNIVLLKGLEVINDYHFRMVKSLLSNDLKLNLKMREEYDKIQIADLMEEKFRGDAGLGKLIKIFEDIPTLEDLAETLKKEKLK
Experimental: (§1) For saturation binding experiments, microtiter plates (Nunc-Immuno MaxiSorp, Thermo Fischer Scientific) were coated with 2 μg/ml of recombinant IFI16 or 10 μg/ml of BSA or GST in 1X PBS O/N at 4°C. After a washing step with 1X PBS and 0.25% Tween 20 (v/v, Sigma-Aldrich) and blocking step with 1X PBS with 3% BSA and 0.05% Tween 20 for 1 h, increasing concentrations of biotin-labeled LPS-EB, preincubated with 10 μg/ml of polymyxin B (PMB) when specified, were added to the wells and incubated for 1 h at room temperature (RT). Bound proteins were then detected using HRP-conjugated streptavidin. TMB solution (Thermo Fischer Scientific) was used for color development, and OD was measured at 450 nm. Alternatively, microtiter plates were coated with 10 μg/ml of LPS-EB, LPS-PG, LPS-RS, LPS-F583, MPLA, DPLA, or detoxLPS in 1X PBS for 24 h at RT. After washing and blocking for 2 h, increasing concentrations of IFI16, PYRIN, HINA, or HINB were added to the wells, preincubated with 10 μg/ml of PMB when specified, for 2 h. Anti-IFI16 antibodies against the N- or the C-terminus of the protein and HRP-labeled anti-rabbit IgG were then added as primary and secondary antibodies, respectively. The binding was detected as described above.
(§2) For competitive ELISA, microtiter plates were coated with 1 μg/ml LPS-EB in 1X PBS O/N at RT. Successively, a constant amount of 2 μg/ml IFI16 was added to the wells in the presence of increasing concentration of LPS-EB, MPLA or detoxLPS. After incubation for 4 h at RT under gentle agitation, plates were incubated with an anti-IFI16 N-terminal primary antibody and an HRP-conjugated anti-rabbit IgG secondary antibody. The binding was detected as described above. To determine KD constants, saturation binding experiments were performed, and data were fitted to the Langmuir isotherm equation, which describes the equilibrium binding of the ligands. Data are reported as sigmoid concentration-response curves plotted against log concentrations.

HINB = target: T2, HINB (Homo sapiens, UniProt Q16666); test: Saturation binding ELISA, HINB domain on immobilized LPS variants / lipid A
T2 construct: each of the 200 amino acid-long HIN domains (namely HINA or HINB); made in house; host or cells: bacteria (pET30a vector)
T2 sequence (Q16666 562-761 limits assumed): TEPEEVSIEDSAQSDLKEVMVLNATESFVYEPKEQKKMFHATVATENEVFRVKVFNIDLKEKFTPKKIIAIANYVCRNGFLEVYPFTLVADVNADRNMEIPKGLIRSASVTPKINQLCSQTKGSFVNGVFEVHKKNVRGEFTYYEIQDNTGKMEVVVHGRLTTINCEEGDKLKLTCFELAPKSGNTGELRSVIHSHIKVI
Experimental: as §1, §2

IFI16 [1] = target: T3, IFI16 (Homo sapiens, UniProt Q16666); test: Saturation binding ELISA, full-length IFI16 on immobilized LPS variants / lipid A
T3 construct: obtained with the full-length recombinant IFI16 protein; made in house
T3 sequence (Q16666 1-729 isoform Q16666-2): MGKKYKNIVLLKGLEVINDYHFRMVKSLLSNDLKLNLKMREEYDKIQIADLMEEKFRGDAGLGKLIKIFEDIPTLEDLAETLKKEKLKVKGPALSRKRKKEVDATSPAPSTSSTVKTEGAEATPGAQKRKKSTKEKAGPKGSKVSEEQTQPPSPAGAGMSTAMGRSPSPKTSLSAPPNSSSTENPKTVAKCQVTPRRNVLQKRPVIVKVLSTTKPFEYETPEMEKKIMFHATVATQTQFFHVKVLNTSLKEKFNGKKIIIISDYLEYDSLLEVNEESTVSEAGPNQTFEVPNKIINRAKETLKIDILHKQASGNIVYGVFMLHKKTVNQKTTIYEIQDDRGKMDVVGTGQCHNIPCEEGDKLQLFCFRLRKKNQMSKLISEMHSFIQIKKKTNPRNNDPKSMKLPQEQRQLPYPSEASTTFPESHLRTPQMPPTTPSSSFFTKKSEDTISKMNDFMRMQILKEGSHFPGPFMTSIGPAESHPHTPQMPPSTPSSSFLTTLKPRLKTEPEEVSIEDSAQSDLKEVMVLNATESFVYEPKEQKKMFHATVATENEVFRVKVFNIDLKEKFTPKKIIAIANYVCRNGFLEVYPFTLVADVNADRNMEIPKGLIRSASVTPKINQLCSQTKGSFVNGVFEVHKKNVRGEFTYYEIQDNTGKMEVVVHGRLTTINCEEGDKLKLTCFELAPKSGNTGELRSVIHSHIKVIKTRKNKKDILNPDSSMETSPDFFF
Experimental: as §1, §2

HINA = target: T4, HINA (Homo sapiens, UniProt Q16666); test: Saturation binding ELISA, HINA domain on immobilized LPS variants / lipid A
T4 construct: each of the 200 amino acid-long HIN domains (namely HINA or HINB); made in house; host or cells: bacteria (pET30a vector)
T4 sequence (Q16666 189-389 limits assumed): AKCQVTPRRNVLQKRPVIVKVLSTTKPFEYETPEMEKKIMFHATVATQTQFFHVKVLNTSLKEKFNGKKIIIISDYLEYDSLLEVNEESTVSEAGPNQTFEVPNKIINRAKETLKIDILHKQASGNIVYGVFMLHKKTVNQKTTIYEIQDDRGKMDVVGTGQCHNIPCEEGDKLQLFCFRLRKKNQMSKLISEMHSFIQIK
Experimental: as §1, §2

IFI16 [2] = target: T3, IFI16; test: Competition ELISA for IFI16 binding to immobilized LPS-EB; conditions: 1 μg/ml LPS-EB coated; 2 μg/ml IFI16; competitor 5 to 25 μg/ml
Experimental: as §2

TLR4/MD2 receptor = target: T5, TLR4/MD2 receptor (Homo sapiens, UniProt O00206+Q9Y6Y9); test: SPR, analytes over immobilized TLR4/MD2; type: binding
T5 construct: purchased R&D Systems 3146-TM-050/CF
T5 sequence (O00206 24-631 limits assumed): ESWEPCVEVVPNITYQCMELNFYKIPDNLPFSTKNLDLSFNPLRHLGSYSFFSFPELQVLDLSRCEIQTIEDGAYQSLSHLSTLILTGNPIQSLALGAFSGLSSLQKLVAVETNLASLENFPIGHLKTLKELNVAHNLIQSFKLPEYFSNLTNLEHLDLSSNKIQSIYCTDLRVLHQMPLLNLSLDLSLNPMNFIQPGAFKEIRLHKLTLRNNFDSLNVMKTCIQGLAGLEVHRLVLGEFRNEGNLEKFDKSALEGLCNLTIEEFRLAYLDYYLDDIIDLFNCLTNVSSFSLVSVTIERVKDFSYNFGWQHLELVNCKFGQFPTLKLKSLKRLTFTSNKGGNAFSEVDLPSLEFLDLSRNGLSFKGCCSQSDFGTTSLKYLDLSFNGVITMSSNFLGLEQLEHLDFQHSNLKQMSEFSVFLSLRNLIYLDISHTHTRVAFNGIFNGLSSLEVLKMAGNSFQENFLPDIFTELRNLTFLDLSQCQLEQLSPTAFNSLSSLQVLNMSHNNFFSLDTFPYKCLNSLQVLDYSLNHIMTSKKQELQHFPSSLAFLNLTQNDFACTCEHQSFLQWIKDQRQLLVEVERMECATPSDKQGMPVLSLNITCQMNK
T5 sequence (Q9Y6Y9 17-160 limits assumed): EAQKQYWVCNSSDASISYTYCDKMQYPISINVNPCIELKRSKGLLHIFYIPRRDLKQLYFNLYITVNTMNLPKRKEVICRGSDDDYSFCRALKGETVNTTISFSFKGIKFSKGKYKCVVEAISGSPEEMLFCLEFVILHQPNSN
Experimental: The Biacore X100 (GE Healthcare) instrument was used for real-time binding interaction experiments. Recombinant TLR4 or TLR4/MD2 complex was covalently immobilized onto the surface of sensor CM5 (cat # BR100012, GE Healthcare) chips via amine coupling. TLR4 was diluted to a concentration of 10 μg/ml in 10 mM sodium acetate at pH 4.0, while TLR4/MD2 complex was diluted to a concentration of 20 μg/ml in the same buffer. Both proteins were injected on CM5 chips at a flow rate of 10 μl/min, upon activation of the carboxyl groups on the sensor surface with 7-min injection of a mixture of 0.2 M EDC and 0.05 M NHS. The remaining esters were blocked with 7-min injection of ethanolamine. Taking into account the ligands (TLR4 or TLR4/MD2) and analytes (IFI16, LPS-EB or IFI16/LPS-EB) molecular weights (MW) of 70 or 90 kDa, and 90, 10 or 100 kDa respectively, the appropriate ligand density (RL) on the chip was calculated according to the following equation: RL = (ligand MW/analyte MW) × Rmax × (1/Sm), where Rmax is the maximum binding signal and Sm corresponds to the binding stoichiometry. The target capture level of the TLR4 or TLR4/MD2 was of 596.0 or 1,223.9 response units (RUs), respectively. […] Increasing concentrations of endotoxin-free IFI16, LPS-EB or IFI16/LPS-EB complex were flowed over the CM5 sensor chip coated with TLR4 or TLR4/MD2 at a flow rate of 30 μl/min at 25°C with an association time of 120 s for IFI16 alone and the IFI16/LPS-EB complex, and 180 s for LPS-EB, and a dissociation phase of 180 s for IFI16 and IFI16/LPS-EB complex or 600 s for LPS-EB. A single regeneration step with 50 mM NaOH was performed following each analytic cycle. All the analytes tested were diluted in the HBS-EP+ buffer (GE Healthcare). […]

IFI16 [3] = target: T3, IFI16; test: SPR, LPS-EB over CM5 IFI16-coated chip; type: binding; conditions: LPS-EB 3.125–100 nM over immobilized IFI16
Experimental: Recombinant IFI16 was covalently immobilized onto the surface of sensor CM5 chips via amine coupling as done for TLR4 and TLR4/MD2 complex. IFI16 was diluted to a concentration of 25 μg/ml in 10 mM sodium acetate at pH 4.0. The target capture level of IFI16 was of 1,926.6 response units (RUs). Increasing concentrations of LPS-EB, diluted in HBS-EP+ buffer, were flowed over the CM5 sensor chip coated with IFI16 at a flow rate of 30 μl/min at 25°C with an association time of 180 s and a dissociation phase of 600 s. A single regeneration step with 50 mM NaOH was performed following each analytic cycle. The KDs were evaluated using the BIAcore evaluation software (GE Healthcare) and the reliability of the kinetic constants calculated by assuming a 1:1 binding model supported by the quality assessment indicators values.

IFI16 [4] = target: T3, IFI16; test: Saturation binding ELISA, IFI16-coated plates challenged with biotin-LPS-EB
Experimental: as §1

[5] = 10 μg/ml immobilized LPS variant or lipid A; increasing PYRIN domain; read-out: Equilibrium dissociation constant (KD), PYRIN
[6] = 10 μg/ml immobilized LPS variant or lipid A; increasing HINB domain; read-out: Equilibrium dissociation constant (KD), HINB
[7] = 10 μg/ml immobilized LPS variant or lipid A; increasing full-length IFI16; ELISA 450 nm; read-out: Equilibrium dissociation constant (KD), IFI16
[8] = 10 μg/ml immobilized LPS variant or lipid A; increasing HINA domain; read-out: Equilibrium dissociation constant (KD), HINA

Row | Molecule | Kd (PYRIN; [5]) [nM] | Kd (HINB; [6]) [nM] | Kd (IFI16 [1]; [7]) [nM] | Kd (HINA; [8]) [nM] | Competition for IFI16 binding to immobilized LPS-EB (IFI16 [2]) | further results
1 | CCCCCCCCCCCCCC(=O)O[C@H](CCCCCCCCCCC)CC(=O)O[C@@H]1[C@@H](NC(=O)C[C@@H](CCCCCCCCCCC)OC(=O)CCCCCCCCCCC)[C@H](OC[C@H]2O[C@H](OP(=O)(O)O)[C@H](NC(=O)C[C@H](O)CCCCCCCCCCC)[C@@H](OC(=O)C[C@H](O)CCCCCCCCCCC)[C@@H]2O)O[C@H](CO)[C@H]1OP(=O)(O)O [DPLA, diphosphoryl lipid A from Escherichia coli F583] | – | – | – | – | – | Kd (PYRIN; read-out: Equilibrium dissociation constant (KD), PYRIN; 10 μg/ml immobilized LPS variant or lipid A; increasing PYRIN domain): 47.5 nM; Kd (HINB; read-out: Equilibrium dissociation constant (KD), HINB; 10 μg/ml immobilized LPS variant or lipid A; increasing HINB domain): 2.8 nM; Kd (IFI16 [1]; read-out: Equilibrium dissociation constant (KD), IFI16; 10 μg/ml immobilized LPS variant or lipid A; increasing full-length IFI16; ELISA 450 nm): 0.9 nM; Kd (HINA; read-out: Equilibrium dissociation constant (KD), HINA; 10 μg/ml immobilized LPS variant or lipid A; increasing HINA domain): 67.7 nM
2 | CCCCCCCCCCCCCC(=O)O[C@H](CCCCCCCCCCC)CC(=O)O[C@@H]1[C@@H](NC(=O)C[C@@H](CCCCCCCCCCC)OC(=O)CCCCCCCCCCC)[C@H](OC[C@H]2OC(O)[C@H](NC(=O)C[C@H](O)CCCCCCCCCCC)[C@@H](OC(=O)C[C@H](O)CCCCCCCCCCC)[C@@H]2O)O[C@H](CO)[C@H]1OP(=O)(O)O (some centres unmarked) [MPLA, monophosphoryl lipid A from Escherichia coli F583] | 47.2 | 2.7 | 1.2 | 94.1 | much stronger reduction in IFI16 binding to LPS | –
3 | LPS from Escherichia coli F583 [LPS-F583] | – | – | 4.3 | – | – | –
4 | LPS from Escherichia coli O111:B4 [LPS-EB] | 116 | 3.3 | 4.2 | 85.3 | reduced IFI16 binding to immobilized LPS in a concentration-dependent manner | dissociation rate constant (Kd) (TLR4/MD2 receptor): 1e-06 s⁻¹; Ka (TLR4/MD2 receptor; association rate constant): 6840 M⁻¹ s⁻¹; dissociation rate constant (koff) (TLR4/MD2 receptor; dissociation rate constant): 1e-06 s⁻¹; Kd (TLR4/MD2 receptor; equilibrium dissociation constant, read-out: KD): 0.147 nM; Rmax (TLR4/MD2 receptor; maximum response): 745.00 RU; Kd (TLR4/MD2 receptor; text / Fig 8C legend, read-out: equilibrium dissociation constant (KD)): 0.15 nM; kinetic association constant (Ka) (IFI16 [3]): 11300 M⁻¹ s⁻¹; kinetic dissociation constant (Kd) (IFI16 [3]; rate constant): 0.00194 s⁻¹
5 | LPS from Porphyromonas gingivalis [LPS-PG] | 46.9 | 1.6 | 12 | 84 | – | –
6 | LPS from Rhodobacter sphaeroides [LPS-RS] | – | – | 19.3 | – | – | –
7 | biotin-labeled LPS from Escherichia coli O111:B4 [biotin-LPS-EB] | – | – | – | – | – | biotin-LPS-EB concentration reaching saturation of solid-phase IFI16 (IFI16 [4]; 2 μg/ml IFI16 coated): 100,000 ng/ml
8 | detoxified LPS from Escherichia coli O111:B4 [detoxLPS] | – | – | – | – | did not interfere | –
9 | polymyxin B [PMB] | – | – | – | – | – | Effect of PMB pre-treatment of immobilized LPS / lipid A on IFI16 binding (IFI16 [1]; 10 μg/ml PMB): completely abolished IFI16 binding; also recorded: no signal was detected; Effect of PMB pre-incubated with biotin-LPS-EB on IFI16/LPS binding (IFI16 [4]; 10 μg/ml PMB, IFI16-coated wells): completely prevented IFI16 from binding to LPS
